This note sets out measurements from patent US20230416232A1, “PYRIMIDINE COMPOUNDS, COMPOSITIONS, AND MEDICINAL APPLICATIONS THEREOF” (Blueprint Medicines Corporation, priority 2020, published 2023).

For orientation: pIC50 means the IC50 on a negative log10 scale, so that one unit is a factor of ten.

The structures appear in SMILES notation. pIC50: −log10 of the molar value.

Assay type in all cases: cell-based
Assay [1] deals with EGFR(D770_N771insSVD) expressing Ba/F3 stable cell line (Homo sapiens, UniProt P00533, DUP768-770, cells depend on it). The experiment in a line: Cellular proliferation (Alamar Blue) assay, EGFR(D770_N771insSVD) Ba/F3. As to conditions: 72 hr, read-out: D770 IC50. The essentials: (§1)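 Compound exposure lasted 72 h at 37 °C over a final 10–0.0005 μM range in 3-fold steps, with viability read by Alamar Blue after a further 3 h. Ba/F3 mutant lines were plated at 15,000 cells/well in RPMI/10% FBS, A431 at 5000/well in DMEM/10% FBS, 16–18 h beforehand.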

Assay [2] has as its target EGFR (A767_dupASV) expressing Ba/F3 stable cell line (Homo sapiens, UniProt P00533, DUP767-769, cells depend on it). Nature of the assay: Cellular proliferation (Alamar Blue) assay, EGFR (A767_dupASV) Ba/F3. As to conditions: 72 hr, read-out: A767 IC50. The method in brief:
as §1
Background: The colour change of resazurin is a common sign of viable cells or microbes.

The test system of another assay is A431 cells. Nature of the assay: Cellular proliferation (Alamar Blue) assay, A431 cells. As to conditions: Homo sapiens, A-431, 72 h, A431 cells; 72 hr; Alamar Blue; read-out: A431 IC50. The essentials:
as §1

The target in assay [3] is EGFR (H773insNPH) expressing Ba/F3 stable cell line (Homo sapiens, UniProt P00533, DUP771-773, cells depend on it). The experiment in a line: Cellular proliferation (Alamar Blue) assay, EGFR (H773insNPH) Ba/F3. As to conditions: 72 hr, read-out: NPH IC50. The essentials:
as §1

The target of assay [4] is HER2 (A775_G776insYVMA) expressing Ba/F3 stable cell line (Homo sapiens, UniProt P04626, DUP772-775, cells depend on it). Nature of the assay: Cellular proliferation (Alamar Blue) assay, HER2 (A775_G776insYVMA) Ba/F3. As to conditions: HER2 (A775_G776insYVMA) Ba/F3 cells; 72 hr; Alamar Blue; read-out: YVMA IC50. The method in brief:
as §1

EGFR (H773insNPH) expressing Ba/F3 stable cell line, sequence (P00533 with tags, fused parts or gaps DUP771-773): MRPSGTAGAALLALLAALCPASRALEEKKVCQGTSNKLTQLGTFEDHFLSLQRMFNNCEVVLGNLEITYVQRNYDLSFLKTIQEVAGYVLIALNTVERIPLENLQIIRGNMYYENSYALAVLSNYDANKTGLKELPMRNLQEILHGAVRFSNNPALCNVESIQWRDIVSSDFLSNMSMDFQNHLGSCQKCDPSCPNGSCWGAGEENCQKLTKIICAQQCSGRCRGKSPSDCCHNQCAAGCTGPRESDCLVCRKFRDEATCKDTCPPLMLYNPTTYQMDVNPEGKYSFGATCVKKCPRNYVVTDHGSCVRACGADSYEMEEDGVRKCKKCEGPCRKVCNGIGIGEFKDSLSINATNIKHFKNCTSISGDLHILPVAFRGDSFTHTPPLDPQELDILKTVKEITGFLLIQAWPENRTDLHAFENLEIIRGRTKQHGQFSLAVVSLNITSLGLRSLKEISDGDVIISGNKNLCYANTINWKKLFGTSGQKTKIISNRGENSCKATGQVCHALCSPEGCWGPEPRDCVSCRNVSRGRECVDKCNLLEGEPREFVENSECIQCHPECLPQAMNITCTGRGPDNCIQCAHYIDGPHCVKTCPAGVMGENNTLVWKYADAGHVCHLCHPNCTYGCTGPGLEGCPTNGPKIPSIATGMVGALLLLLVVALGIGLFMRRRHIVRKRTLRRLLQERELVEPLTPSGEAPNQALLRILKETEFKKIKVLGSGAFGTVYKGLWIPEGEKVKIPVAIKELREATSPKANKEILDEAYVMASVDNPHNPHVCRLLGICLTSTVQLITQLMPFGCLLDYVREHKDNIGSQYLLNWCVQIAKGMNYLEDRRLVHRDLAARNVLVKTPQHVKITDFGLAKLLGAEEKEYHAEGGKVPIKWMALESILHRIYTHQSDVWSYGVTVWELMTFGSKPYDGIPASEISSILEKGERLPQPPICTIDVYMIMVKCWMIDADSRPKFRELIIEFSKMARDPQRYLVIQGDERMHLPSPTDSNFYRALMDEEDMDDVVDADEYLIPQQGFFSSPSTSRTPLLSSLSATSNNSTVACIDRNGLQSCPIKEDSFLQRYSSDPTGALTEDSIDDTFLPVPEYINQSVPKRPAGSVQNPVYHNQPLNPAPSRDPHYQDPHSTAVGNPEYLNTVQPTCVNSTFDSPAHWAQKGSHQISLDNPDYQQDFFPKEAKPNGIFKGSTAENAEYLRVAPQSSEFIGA
EGFR(D770_N771insSVD) expressing Ba/F3 stable cell line, sequence (P00533 with tags, fused parts or gaps DUP768-770): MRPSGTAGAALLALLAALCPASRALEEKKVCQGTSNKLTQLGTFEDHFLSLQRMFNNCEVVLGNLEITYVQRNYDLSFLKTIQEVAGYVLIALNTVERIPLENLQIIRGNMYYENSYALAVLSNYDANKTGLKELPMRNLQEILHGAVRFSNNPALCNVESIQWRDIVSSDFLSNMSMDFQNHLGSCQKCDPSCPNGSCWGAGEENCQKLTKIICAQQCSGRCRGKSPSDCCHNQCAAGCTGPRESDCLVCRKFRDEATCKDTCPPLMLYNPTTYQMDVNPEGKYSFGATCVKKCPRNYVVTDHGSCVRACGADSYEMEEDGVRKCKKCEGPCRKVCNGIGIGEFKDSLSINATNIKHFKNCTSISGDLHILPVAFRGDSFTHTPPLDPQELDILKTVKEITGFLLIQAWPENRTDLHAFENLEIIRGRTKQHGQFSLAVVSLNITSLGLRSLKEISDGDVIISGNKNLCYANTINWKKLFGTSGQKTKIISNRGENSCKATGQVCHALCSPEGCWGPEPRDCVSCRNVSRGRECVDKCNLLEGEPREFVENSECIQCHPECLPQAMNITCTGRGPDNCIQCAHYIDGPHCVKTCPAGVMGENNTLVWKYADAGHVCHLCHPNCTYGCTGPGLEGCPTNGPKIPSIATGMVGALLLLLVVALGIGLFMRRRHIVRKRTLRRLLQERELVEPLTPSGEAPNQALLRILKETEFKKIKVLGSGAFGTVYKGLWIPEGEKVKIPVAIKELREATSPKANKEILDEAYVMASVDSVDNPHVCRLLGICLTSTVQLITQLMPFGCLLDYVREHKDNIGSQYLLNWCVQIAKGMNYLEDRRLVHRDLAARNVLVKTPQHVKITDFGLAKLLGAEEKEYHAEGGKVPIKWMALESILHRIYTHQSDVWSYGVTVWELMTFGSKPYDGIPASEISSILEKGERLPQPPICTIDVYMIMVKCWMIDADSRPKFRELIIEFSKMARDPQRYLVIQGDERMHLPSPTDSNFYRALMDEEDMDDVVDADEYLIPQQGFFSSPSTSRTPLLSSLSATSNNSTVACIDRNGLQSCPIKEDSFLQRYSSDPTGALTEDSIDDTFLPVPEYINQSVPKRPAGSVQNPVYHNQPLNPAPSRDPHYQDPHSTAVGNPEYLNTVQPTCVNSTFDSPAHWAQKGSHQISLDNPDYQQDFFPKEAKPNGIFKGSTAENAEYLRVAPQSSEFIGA
HER2 (A775_G776insYVMA) expressing Ba/F3 stable cell line, sequence (P04626 with tags, fused parts or gaps DUP772-775): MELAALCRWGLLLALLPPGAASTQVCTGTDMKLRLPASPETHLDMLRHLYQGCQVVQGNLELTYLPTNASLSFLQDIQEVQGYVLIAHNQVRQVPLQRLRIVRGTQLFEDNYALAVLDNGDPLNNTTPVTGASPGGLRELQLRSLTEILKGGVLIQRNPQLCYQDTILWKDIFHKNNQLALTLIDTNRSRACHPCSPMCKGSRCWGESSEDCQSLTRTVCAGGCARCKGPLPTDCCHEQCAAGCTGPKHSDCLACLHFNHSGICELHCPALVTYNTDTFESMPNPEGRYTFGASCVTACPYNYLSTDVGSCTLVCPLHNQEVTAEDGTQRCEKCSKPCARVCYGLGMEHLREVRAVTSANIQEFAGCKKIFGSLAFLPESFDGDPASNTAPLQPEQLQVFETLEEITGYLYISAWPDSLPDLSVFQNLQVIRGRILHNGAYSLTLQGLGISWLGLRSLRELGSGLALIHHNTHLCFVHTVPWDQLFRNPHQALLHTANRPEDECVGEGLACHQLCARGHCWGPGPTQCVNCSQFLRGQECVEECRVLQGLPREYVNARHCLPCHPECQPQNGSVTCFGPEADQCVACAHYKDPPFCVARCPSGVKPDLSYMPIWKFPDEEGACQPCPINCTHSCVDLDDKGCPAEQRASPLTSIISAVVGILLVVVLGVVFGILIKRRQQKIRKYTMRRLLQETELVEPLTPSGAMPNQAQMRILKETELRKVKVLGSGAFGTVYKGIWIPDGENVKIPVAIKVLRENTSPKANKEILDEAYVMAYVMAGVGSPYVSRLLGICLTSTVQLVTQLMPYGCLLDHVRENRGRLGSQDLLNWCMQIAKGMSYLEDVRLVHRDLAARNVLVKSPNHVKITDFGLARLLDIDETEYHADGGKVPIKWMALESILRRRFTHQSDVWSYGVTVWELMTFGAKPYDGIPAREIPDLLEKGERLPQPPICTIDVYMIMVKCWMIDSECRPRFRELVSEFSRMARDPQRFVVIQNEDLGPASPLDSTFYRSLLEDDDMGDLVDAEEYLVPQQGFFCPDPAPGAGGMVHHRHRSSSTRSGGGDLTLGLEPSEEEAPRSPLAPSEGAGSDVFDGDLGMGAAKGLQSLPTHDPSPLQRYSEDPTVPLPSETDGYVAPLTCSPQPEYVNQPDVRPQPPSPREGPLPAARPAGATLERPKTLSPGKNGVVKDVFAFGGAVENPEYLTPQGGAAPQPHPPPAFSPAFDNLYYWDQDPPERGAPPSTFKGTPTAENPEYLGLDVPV
EGFR (A767_dupASV) expressing Ba/F3 stable cell line, sequence (P00533 with tags, fused parts or gaps DUP767-769): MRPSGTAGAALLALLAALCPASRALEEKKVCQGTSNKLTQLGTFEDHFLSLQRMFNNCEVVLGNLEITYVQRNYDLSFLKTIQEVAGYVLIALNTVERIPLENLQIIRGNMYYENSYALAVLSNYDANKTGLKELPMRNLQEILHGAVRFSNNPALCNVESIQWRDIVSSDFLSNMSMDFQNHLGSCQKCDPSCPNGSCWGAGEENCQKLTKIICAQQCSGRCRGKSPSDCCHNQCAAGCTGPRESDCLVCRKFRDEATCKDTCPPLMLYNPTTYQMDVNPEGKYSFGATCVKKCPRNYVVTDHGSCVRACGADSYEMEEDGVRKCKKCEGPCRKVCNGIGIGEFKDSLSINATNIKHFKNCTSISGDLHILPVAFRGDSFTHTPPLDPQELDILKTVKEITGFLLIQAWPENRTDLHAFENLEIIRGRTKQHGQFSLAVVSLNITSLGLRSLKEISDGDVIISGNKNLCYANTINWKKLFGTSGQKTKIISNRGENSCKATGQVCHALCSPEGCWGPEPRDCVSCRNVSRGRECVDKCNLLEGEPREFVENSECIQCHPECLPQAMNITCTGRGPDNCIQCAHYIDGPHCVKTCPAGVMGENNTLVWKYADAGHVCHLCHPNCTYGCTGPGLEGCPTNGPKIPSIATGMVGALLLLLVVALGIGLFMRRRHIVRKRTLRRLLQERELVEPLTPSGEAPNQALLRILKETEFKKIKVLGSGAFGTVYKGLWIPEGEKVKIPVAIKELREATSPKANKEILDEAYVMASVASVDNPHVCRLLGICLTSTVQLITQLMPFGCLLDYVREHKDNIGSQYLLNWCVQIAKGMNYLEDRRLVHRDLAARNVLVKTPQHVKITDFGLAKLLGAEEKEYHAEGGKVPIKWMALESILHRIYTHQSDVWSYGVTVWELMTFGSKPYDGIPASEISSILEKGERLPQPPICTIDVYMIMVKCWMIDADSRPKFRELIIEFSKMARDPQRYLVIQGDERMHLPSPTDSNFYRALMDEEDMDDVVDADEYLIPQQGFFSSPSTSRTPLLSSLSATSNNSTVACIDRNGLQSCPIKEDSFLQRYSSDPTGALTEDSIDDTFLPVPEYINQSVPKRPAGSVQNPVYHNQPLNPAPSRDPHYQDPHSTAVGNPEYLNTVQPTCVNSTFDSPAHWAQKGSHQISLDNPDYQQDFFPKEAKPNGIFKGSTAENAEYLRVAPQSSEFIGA

As for `C=CC(=O)Nc1ccc(F)c(Nc2nc(Nc3cnn(C)c3)ncc2-c2ccc(Cl)c(Br)c2)c1` [Compound 90, N-(3-((5-(3-bromo-4-chlorophenyl)-2-((1-methyl-1H-pyrazol-4-yl)amino)pyrimidin-4-yl)amino)-4-fluorophenyl)acrylamide], the GI50 in assay [1] came to 100 nM; in assay [2], 122 nM; in assay [3], 156 nM; in assay [4], 164 nM. The pIC50 in the assay with A431 cells was 6.73.

With `C=CC(=O)Nc1ccc(F)c(Nc2nc(Nc3cn(C)nc3Cl)ncc2-c2ccc(Br)c(F)c2)c1` [Compound 92, N-(3-((5-(4-bromo-3-fluorophenyl)-2-((3-chloro-1-methyl-1H-pyrazol-4-yl)amino)pyrimidin-4-yl)amino)-4-fluorophenyl)acrylamide], the GI50 is 74 nM in assay [1], 102 nM in assay [2], 54 nM in assay [3] and 113 nM in assay [4]. In addition, the negative logarithm of the IC50 (pIC50) in the assay on A431 cells is 7.35.

Regarding `C=CC(=O)Nc1ccc(F)c(Nc2nc(Nc3cnn(CCO)c3)ncc2-c2ccc(Br)c(F)c2)c1` [Compound 96, N-(3-((5-(4-bromo-3-fluorophenyl)-2-((1-(2-hydroxyethyl)-1H-pyrazol-4-yl)amino)pyrimidin-4-yl)amino)-4-fluorophenyl)acrylamide], the GI50 is 25 nM in assay [1], 28 nM in assay [2], 96 nM in assay [3] and 56 nM in assay [4]. In addition, the pIC50 in the assay on A431 cells is 7.43.

Consider `C=CC(=O)Nc1ccc(F)c(Oc2nc(Nc3cnn(C)c3)ncc2-c2ccc(Cl)c(F)c2)c1` [Compound 98, N-(3-{[5-(4-chloro-3-fluorophenyl)-2-[(1-methyl-1H-pyrazol-4-yl)amino]pyrimidin-4-yl]oxy}-4-fluorophenyl) prop-2-enamide], for which the GI50 in assay [1] turned out to be 36 nM; in assay [2], 104 nM; in assay [3], 153 nM; in assay [4] it was 252 nM. In the assay with A431 cells, the pIC50 is 6.00.
